Assay results as given in US8846656B2, “Tetrahydropyrido-pyridine and tetrahydropyrido-pyrimidine compounds and use thereof as C5a receptor modulators” (Novartis AG, priority 2011, dated 2014).

How the values were obtained:
[1] = target: human C5aR (Homo sapiens (Human), UniProt P21730); assay: FLIPR assay: inhibition of C5a-mediated calcium mobilization; format: cell-based; settings: stable cell line over expressing human C5aR & Gα15, human C5a at EC50 (0.1-0.25 nM)
How it was run: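 Compounds were added for 30 minutes at room temperature (1% DMSO) ahead of C5a stimulation. Before this, cells were dye-loaded for 1 h at 37° C: calcium 5 with 2.5 mM probenecid in HBSS, 20 mM HEPES, 0.1% BSA. Cells co-express human C5aR and Gα15; read-out is FLIPR Tetra calcium flux.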

[2] = tested on: CD11b; assay: Human whole blood CD11b up-regulation assay; format: cell-based; settings: Homo sapiens, 2 nM human C5a, CD15+ granulocytes, read-out: hCD11b IC50
Experimental: Whole blood was collected in sodium heparin tubes and the assay started within 2 hours of the blood draw. The blood was incubated with compounds in 1% DMSO (dimethyl sulfoxide) at room temperature for 10 minutes with gentle rocking. 2 nM of human C5a was then added for 15 minutes at room temperature with gentle rocking. Following the C5a incubation period cells were washed once with cold FACS (fluorescence-activated cell sorting) buffer (phosphate buffered saline+0.5% bovine serum albumin) FITC (fluorescein isothiocyanate) mouse anti-human CD15 and PE-Cy5 (phycoerythrin-cyanine 5) mouse anti-human CD11b antibodies (Becton Dickinson) were gently mixed with the cells and allowed to incubate for 30 minutes on ice protected from the light. Cells were then washed three times with cold FACS buffer. Red blood cells (RBC) were lysed by incubating with BD FACS lysis buffer (Becton Dickinson) for 10 minutes at room temperature. Cells were pelleted and the lysing procedure was repeated until all RBCs were lysed. The remaining leukocytes were resuspended in BD lysis buffer. Samples were acquired on the LSR^11 flow cytometer and 10,000 events of the CD15+ granulocyte population were collected. The CD11b median fluorescence intensity of the CD 15+ cell population was evaluated using FACSDiva software (Becton Dickinson).

Chain of human C5aR (P21730 whole entry): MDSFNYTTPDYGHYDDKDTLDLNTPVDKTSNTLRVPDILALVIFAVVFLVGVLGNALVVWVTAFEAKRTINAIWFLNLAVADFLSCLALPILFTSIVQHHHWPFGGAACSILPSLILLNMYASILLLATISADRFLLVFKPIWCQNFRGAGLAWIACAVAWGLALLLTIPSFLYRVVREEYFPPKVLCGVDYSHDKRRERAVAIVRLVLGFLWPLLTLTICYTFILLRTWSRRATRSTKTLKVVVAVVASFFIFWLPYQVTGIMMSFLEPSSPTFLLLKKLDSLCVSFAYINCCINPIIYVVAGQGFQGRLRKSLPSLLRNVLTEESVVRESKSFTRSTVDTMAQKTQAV

| SMILES | IC50 [1] [nM] | IC50 [2] [nM] |
| --- | --- | --- |
| CO[C@H]1CCN(c2nc(-c3c(C(C)C)ccc4[nH]ncc34)nc3c2CN(c2cc(C4(C)COC4)ccc2C)CC3)CC1(C)C [Example 19-AC, (S)-2-(5-isopropyl-1H-indazol-4-yl)-4-(4-methoxy-3,3-dimethylpiperidin-1-yl)-6-(2-methyl-5-(3-methyloxetan-3-yl)phenyl)-5,6,7,8-tetrahydropyrido[4,3-d]pyrimidine] | 4 | 50 |
| CO[C@H]1CCN(c2nc(-c3c(C)cccc3C)nc3c2CN(c2cc(C(C)C)ccc2C)CC3)CC1(C)C [Example 19-AD, (S)-2-(2,6-dimethylphenyl)-6-(5-isopropyl-2-methylphenyl)-4-(4-methoxy-3,3-dimethylpiperidin-1-yl)-5,6,7,8-tetrahydropyrido[4,3-d]pyrimidine] | 2 | 26 |
| COc1ccc(C)c(N2CCc3nc(-c4c(C(C)C)ccc5[nH]ncc45)nc(N4CC[C@H](OC)C(C)(C)C4)c3C2)c1 [Example 19-AE, (S)-2-(5-isopropyl-1H-indazol-4-yl)-6-(5-methoxy-2-methylphenyl)-4-(4-methoxy-3,3-dimethylpiperidin-1-yl)-5,6,7,8-tetrahydropyrido[4,3-d]pyrimidine] | 4 | 22 |
| CO[C@@H]1CCN(c2nc(-c3c(C)ccc4[nH]nc(C)c34)nc3c2CN(c2cc(C(C)C)ccc2C)CC3)C[C@H]1C [Example 19-AF] | 1 | 6 |
| CO[C@@H]1CCN(c2nc(-c3c(C)cccc3Cl)nc3c2CN(c2cc(C(C)C)ccc2C)CC3)C[C@H]1C [Example 19-AH, 2-(2-chloro-6-methylphenyl)-6-(5-isopropyl-2-methylphenyl)-4-((3R,4R)-4-methoxy-3-methylpiperidin-1-yl)-5,6,7,8-tetrahydropyrido[4,3-d]pyrimidine] | 4 | 17 |
| CO[C@H]1CCN(c2nc(-c3c(C)ccc4[nH]nc(C)c34)nc3c2CN(c2cc(C(C)C)ccc2C)CC3)CC1(C)C [Example 19-AI, (S)-2-(3,5-dimethyl-1H-indazol-4-yl)-6-(5-isopropyl-2-methylphenyl)-4-(4-methoxy-3,3-dimethylpiperidin-1-yl)-5,6,7,8-tetrahydropyrido[4,3-d]pyrimidine] | 2 | 7 |
| CO[C@@H]1CCN(c2nc(-c3c(C)cccc3C#N)nc3c2CN(c2cc(C(C)C)ccc2C)CC3)C[C@H]1C [Example 19-AK, 2-(6-(5-isopropyl-2-methylphenyl)-4-((3R,4R)-4-methoxy-3-methylpiperidin-1-yl)-5,6,7,8-tetrahyropyrido[4,3-d]pyrimidin-2-yl)-3-methylbenzonitrile] | 31 | 30 |
| CO[C@@H]1CCN(c2nc(-c3c(C)cccc3C)nc3c2CN(c2cc(C(F)(F)F)ccc2C)CC3)CC1(C)C [Example 21-AB, (R)-2-(2,6-dimethylphenyl)-4-(4-methoxy-3,3-dimethylpiperidin-1-yl)-6-(2-methyl-5-(trifluoromethyl)phenyl)-5,6,7,8-tetrahydropyrido[4,3-d]pyrimidine] | 4 | 11 |
| CO[C@@H]1CCN(c2nc(-c3c(C)cc(C)cc3C)nc3c2CN(c2cc(C(C)C)ccc2C)CC3)CC1(C)C [Example 21-AE, (R)-6-(5-isopropyl-2-methylphenyl)-2-mesityl-4-(4-methoxy-3,3-dimethylpiperidin-1-yl)-5,6,7,8-tetrahydropyrido[4,3-d]pyrimidine] | 9 | 93 |
| CO[C@H]1CCN(c2nc(-c3ccc(F)c4[nH]cc(C)c34)nc3c2CN(c2cc(C(C)C)ccc2C)CC3)CC1(C)C [Example 21-AF, (S)-2-(7-fluoro-3-methyl-1H-indol-4-yl)-6-(5-isopropyl-2-methylphenyl)-4-(4-methoxy-3,3-dimethylpiperidin-1-yl)-5,6,7,8-tetrahydropyrido[4,3-d]pyrimidine] | 4 | 28 |
| CO[C@@H]1CCN(c2nc(-c3c(C)ccc4[nH]nc(C)c34)nc3c2CN(c2cc(Cl)ccc2C)CC3)[C@H](C)C1 [Example 21-AG, 6-(5-chloro-2-methylphenyl)-2-(3,5-dimethyl-1H-indazol-4-yl)-4-((2R,4R)-4-methoxy-2-methylpiperidin-1-yl)-5,6,7,8-tetrahydropyrido[4,3-d]pyrimidine] | 1 | 22 |
| CO[C@@H]1CCN(c2nc(-c3c(C)ccc4[nH]nc(C)c34)nc3c2CN(c2cc(C(F)(F)F)ccc2C)CC3)[C@H](C)C1 [Example 21-AH, 2-(3,5-dimethyl-1H-indazol-4-yl)-4-((2R,4R)-4-methoxy-2-methylpiperidin-1-yl)-6-(2-methyl-5-(trifluoromethyl)phenyl)-5,6,7,8-tetrahydropyrido[4,3-d]pyrimidine] | 1 | 6 |
| CO[C@@H]1CCN(c2nc(-c3c(C)ccc4[nH]nc(C)c34)nc3c2CN(c2cc(C(C)C)ccc2C)CC3)CC1(C)C [Example 21-AI, (R)-2-(3,5-dimethyl-1H-indazol-4-yl)-6-(5-isopropyl-2-methylphenyl)-4-(4-methoxy-3,3-dimethylpiperidin-1-yl)-5,6,7,8-tetrahydropyrido[4,3-d]pyrimidine] | 1 | 8 |
| CO[C@@H]1CCN(c2nc(-c3c(C)ccc4[nH]nc(C)c34)nc3c2CN(c2cc(C(F)(F)F)ccc2C)CC3)CC1(C)C [Example 21-AJ, (R)-2-(3,5-dimethyl-1H-indazol-4-yl)-4-(4-methoxy-3,3-dimethylpiperidin-1-yl)-6-(2-methyl-5-(trifluoromethyl)phenyl)-5,6,7,8-tetrahydropyrido[4,3-d]pyrimidine] | 6 | 15 |
| CO[C@@H]1CCN(c2nc(-c3c(C)cccc3C)nc3c2CN(c2cc(C(F)(F)F)ccc2C)CC3)[C@H](C)C1 [Example 21-AK, 2-(2,6-dimethylphenyl)-4-((2R,4R)-4-methoxy-2-methylpiperidin-1-yl)-6-(2-methyl-5-(trifluoromethyl)phenyl)-5,6,7,8-tetrahydropyrido[4,3-d]pyrimidine] | 5 | 51 |
| CCO[C@@H]1CCN(c2nc(-c3c(C)ccc4[nH]nc(C)c34)nc3c2CN(c2cc(C(C)C)ccc2C)CC3)[C@H](C)C1 [Example 21-AL, 2-(3,5-dimethyl-1H-indazol-4-yl)-4-((2R,4R)-4-ethoxy-2-methylpiperidin-1-yl)-6-(5-isopropyl-2-methylphenyl)-5,6,7,8-tetrahydropyrido[4,3-d]pyrimidine] | 1 | 19 |
| Cc1ccc(C(C)C)cc1N1CCc2nc(-c3c(C)ccc4[nH]nc(C)c34)nc(N3CCCC[C@H]3C)c2C1 [Example 21-AM, (R)-2-(3,5-dimethyl-1H-indazol-4-yl)-6-(5-isopropyl-2-methylphenyl)-4-(2-methylpiperidin-1-yl)-5,6,7,8-tetrahydropyrido[4,3-d]pyrimidine] | 1 | 7 |
| CO[C@@H]1CCN(c2nc(-c3c(C)cccc3C)nc3c2CN(c2cc(C(C)C)ccc2C)CC3)[C@H](C)C1 [Example 21-D, 2-(2,6-Dimethylphenyl)-6-(5-isopropyl-2-methylphenyl)-4-((2R,4R)-4-methoxy-2-methylpiperidin-1-yl)-5,6,7,8-tetrahydropyrido[4,3-d]pyrimidine] | 0.5 | 7 |
| CO[C@@H]1CCN(c2nc(-c3cc(C)ccc3C)nc3c2CN(c2cc(C(C)C)ccc2C)CC3)[C@H](C)C1 [Example 21-E, 2-(2,5-dimeethylphenyl)-6-(5-isopropyl-2-methylphenyl)-4-((2R,4R)-4-methoxy-2-methylpiperidin-1-yl)-5,6,7,8-tetrahydropyrido[4,3-d]pyrimidine] | 23 | 422 |
| CO[C@@H]1CCN(c2nc(-c3c(C)cccc3C)nc3c2CN(c2cc(C4(C)COC4)ccc2C)CC3)[C@H](C)C1 [Example 21-K, 2-(2,6-dimethylphenyl)-4-((2R,4R)-4-methoxy-2-methylpiperidin-1-yl)-6-(2-methyl-5-(3-methyloxetan-3-yl)phenyl)-5,6,7,8-tetrahydropyrido[4,3-d]pyrimidine] | 2 | 11 |
| CO[C@@H]1CCN(c2nc(-c3c(C)cncc3C)nc3c2CN(c2cc(C(C)C)ccc2C)CC3)CC1(C)C [Example 21-M, (R)-2-(3,5-dimethylpyridin-4-yl)-6-(5-isopropyl-2-methylphenyl)-4-(4-methoxy-3,3-dimethylpiperidin-1-yl)-5,6,7,8-tetrahydropyrido[4,3-d]pyrimidine] | 56 | 181 |
| COc1ccc(C)c(N2CCc3nc(-c4c(C)cccc4C)nc(N4CC[C@@H](OC)C[C@H]4C)c3C2)c1 [Example 21-N, 2-(2,6-dimethylphenyl)-6-(5-methoxy-2-methylphenyl)-4-((2R,4R)-4-methoxy-2-methylpiperidin-1-yl)-5,6,7,8-tetrahydropyrido[4,3-d]pyrimidine] | 2 | 8 |
| CO[C@@H]1CCN(c2nc(-c3c(C)cccc3C)nc3c2CN(c2cc(Cl)ccc2C)CC3)[C@H](C)C1 [Example 21-P, 6-(5-chloro-2-methylphenyl)-2-(2,6-dimethylphenyl)-4-((2R,4R)-4-methoxy-2-methylpiperidin-1-yl)-5,6,7,8-tetrahydropyrido[4,3-d]pyrimidine] | 7 | 26 |
